Experimental data published in PubChem BioAssay AID226 (DTP/NCI, 2004).
“And” between values parts separate entries of the source, which are not always exact repeats. Equal entries are not always repeated. Inconclusive results and toxic doses are left out. Rule for the calls: active = survival T/C of 150% or more; inactive = T/C below 125% in these data.

Tested on: B6C3F1 mice, intracerebral ependymoblastoma, median survival T/C
Assay: NCI In Vivo Anticancer Drug Screen. Data for tumor model Ependymoblastoma (intracerebral) in B6C3F1 mice
Settings: endpoint: median survival time, higher = longer survival
Procedure: The antitumor activity of compounds was measured in mice bearing transplantable tumors. Survival or tumor size were measured and the results are expressed as the measurement made in the treated group (T) divided by the measurement made in the vehicle treated control group (C). The tumor model used in this assay is Ependymoblastoma (intracerebral) in B6C3F1 mice

[1] = dose: 64.0 mg/kg/injection, schedule: Q01DX005 (ip), vehicle: saline with Tween-80
[2] = dose: 128.0 mg/kg/injection, schedule: Q01DX005 (ip), vehicle: saline with Tween-80
[3] = dose: 12.5 mg/kg/injection, schedule: Q01DX005 (ip), vehicle: Klucel (hydroxypropylcellulose) (HPC)
[4] = dose: 25.0 mg/kg/injection, schedule: Q01DX005 (ip), vehicle: Klucel (hydroxypropylcellulose) (HPC)
[5] = dose: 40.0 mg/kg/injection, schedule: Q01DX001 (ip), vehicle: saline

Measured: T/C

CCC(=O)O[C@H]1CC[C@H]2[C@@H]3[C@@H](C)CC4=CC(=O)CC[C@]4(C)[C@H]3CC[C@]12C
inactive: dose: 32.0 mg/kg/injection, schedule: Q01DX005 (ip), vehicle: saline with Tween-80 99 % of control and 106 % of control | [1] 97 % of control and 106 % of control | [2] 97 % of control and 101 % of control | dose: 256.0 mg/kg/injection, schedule: Q01DX005 (ip), vehicle: saline with Tween-80 101 % of control and 89 % of control | dose: 512.0 mg/kg/injection, schedule: Q01DX005 (ip), vehicle: saline with Tween-80 93 % of control and 100 % of control | dose: 768.0 mg/kg/injection, schedule: Q01DX005 (ip), vehicle: saline with Tween-80 94 % of control

COC1C(CO)OC(n2cnc3c(=S)nc(N)[nH]c32)C1O (stereo not given)
inactive: [3] 104 % of control | [4] 109 % of control | dose: 50.0 mg/kg/injection, schedule: Q01DX005 (ip), vehicle: Klucel (hydroxypropylcellulose) (HPC) 119 % of control | dose: 100.0 mg/kg/injection, schedule: Q01DX005 (ip), vehicle: Klucel (hydroxypropylcellulose) (HPC) 106 % of control

CCCCCN(C)/N=N/c1nc[nH]c1C(N)=O
active: [1] 153 % of control | [2] 160 % of control

O=C(NC1=C(N2CC2)C(=O)C(NC(=O)OCCO)=C(N2CC2)C1=O)OCCO
inactive: dose: 0.18 mg/kg/injection, schedule: Q01DX005 (ip), vehicle: saline 106 % of control | dose: 0.39 mg/kg/injection, schedule: Q01DX005 (ip), vehicle: saline 98 % of control | dose: 0.75 mg/kg/injection, schedule: Q01DX005 (ip), vehicle: saline 102 % of control | dose: 1.5 mg/kg/injection, schedule: Q01DX005 (ip), vehicle: saline 103 % of control and 108 % of control | dose: 3.0 mg/kg/injection, schedule: Q01DX005 (ip), vehicle: saline 96 % of control and 115 % of control | dose: 6.0 mg/kg/injection, schedule: Q01DX005 (ip), vehicle: saline 110 % of control and 113 % of control

O=P1(NCCCl)OCCCN1CCCl (stereo not given)
inactive: dose: 25.0 mg/kg/injection, schedule: Q01DX001 (ip), vehicle: water 101 % of control | [5] 102 % of control | dose: 50.0 mg/kg/injection, schedule: Q01DX001 (ip), vehicle: water 104 % of control and 105 % of control | dose: 80.0 mg/kg/injection, schedule: Q01DX001 (ip), vehicle: saline 101 % of control | dose: 100.0 mg/kg/injection, schedule: Q01DX001 (ip), vehicle: water 101 % of control and 113 % of control | dose: 160.0 mg/kg/injection, schedule: Q01DX001 (ip), vehicle: saline 102 % of control | dose: 200.0 mg/kg/injection, schedule: Q01DX001 (ip), vehicle: water 114 % of control and 124 % of control | dose: 320.0 mg/kg/injection, schedule: Q01DX001 (ip), vehicle: saline 105 % of control | dose: 400.0 mg/kg/injection, schedule: Q01DX001 (ip), vehicle: water 119 % of control | dose: 640.0 mg/kg/injection, schedule: Q01DX001 (ip), vehicle: saline 118 % of control

CN(N=O)C(N)=O
inactive: dose: 0.5 mg/kg/injection, schedule: Q01DX005 (ip), vehicle: saline + alcohol 98 % of control and 101 % of control and 107 % of control | dose: 2.0 mg/kg/injection, schedule: Q#A X002 (ip), vehicle: saline + alcohol 115 % of control | dose: 4.0 mg/kg/injection, schedule: Q01DX001 (ip), vehicle: saline + alcohol 118 % of control and 120 % of control | dose: 4.0 mg/kg/injection, schedule: Q#A X002 (ip), vehicle: saline + alcohol 113 % of control | dose: 8.0 mg/kg/injection, schedule: Q01DX001 (ip), vehicle: saline + alcohol 121 % of control | dose: 16.0 mg/kg/injection, schedule: Q01DX001 (oral), vehicle: saline + alcohol 123 % of control | dose: 16.0 mg/kg/injection, schedule: Q01DX005 (ip), vehicle: Klucel (hydroxypropylcellulose) (HPC) 118 % of control | dose: 32.0 mg/kg/injection, schedule: Q01DX001 (ip), vehicle: saline + alcohol 116 % of control | dose: 32.0 mg/kg/injection, schedule: Q01DX001 (oral), vehicle: saline + alcohol 118 % of control | dose: 32.0 mg/kg/injection, schedule: Q01DX005 (oral), vehicle: saline + alcohol 94 % of control | [5] 122 % of control | dose: 64.0 mg/kg/injection, schedule: Q01DX001 (oral), vehicle: saline + alcohol 111 % of control | dose: 128.0 mg/kg/injection, schedule: Q01DX001 (oral), vehicle: saline + alcohol 107 % of control and 121 % of control | dose: 256.0 mg/kg/injection, schedule: Q01DX001 (oral), vehicle: saline + alcohol 112 % of control
active: dose: 1.56 mg/kg/injection, schedule: Q01DX009 (ip), vehicle: saline 161 % of control | dose: 3.12 mg/kg/injection, schedule: Q01DX009 (ip), vehicle: saline 161 % of control | dose: 4.0 mg/kg/injection, schedule: Q01DX005 (oral), vehicle: saline + alcohol 150 % of control | dose: 4.0 mg/kg/injection, schedule: Q## X006 (ip), vehicle: saline + alcohol 156 % of control | dose: 6.25 mg/kg/injection, schedule: Q01DX009 (ip), vehicle: saline 164 % of control | dose: 8.0 mg/kg/injection, schedule: Q## X004 (ip), vehicle: saline + alcohol 150 % of control | dose: 8.0 mg/kg/injection, schedule: Q## X006 (ip), vehicle: saline + alcohol 156 % of control | dose: 10.0 mg/kg/injection, schedule: Q01DX001 (ip), vehicle: saline + alcohol 157 % of control | dose: 16.0 mg/kg/injection, schedule: Q01DX005 (oral), vehicle: saline + alcohol 150 % of control | dose: 16.0 mg/kg/injection, schedule: Q## X006 (ip), vehicle: saline + alcohol 162 % of control | dose: 20.0 mg/kg/injection, schedule: Q01DX001 (ip), vehicle: saline + alcohol 157 % of control | dose: 32.0 mg/kg/injection, schedule: Q## X004 (ip), vehicle: saline + alcohol 178 % of control | dose: 40.0 mg/kg/injection, schedule: Q01DX001 (ip), vehicle: saline + alcohol 161 % of control | dose: 80.0 mg/kg/injection, schedule: Q01DX001 (ip), vehicle: saline + alcohol 183 % of control

CCC(=O)OCC1OC(n2cnc3c(=S)nc(N)[nH]c32)C(OC(=O)CC)C1OC(=O)CC (stereo not given)
inactive: dose: 3.12 mg/kg/injection, schedule: Q01DX005 (ip), vehicle: Klucel (hydroxypropylcellulose) (HPC) 104 % of control | dose: 6.25 mg/kg/injection, schedule: Q01DX005 (ip), vehicle: Klucel (hydroxypropylcellulose) (HPC) 110 % of control | [3] 121 % of control | [4] 120 % of control

CN1CC[C@]23c4c5ccc(O)c4O[C@H]2C(=O)CC[C@H]3[C@H]1C5
inactive: dose: 6.25 mg/kg/injection, schedule: Q01DX005 (iv), vehicle: saline 113 % of control | dose: 12.5 mg/kg/injection, schedule: Q01DX005 (iv), vehicle: saline 114 % of control | dose: 25.0 mg/kg/injection, schedule: Q01DX005 (iv), vehicle: saline 122 % of control

CCCN(C)/N=N/c1nc[nH]c1C(N)=O
inactive: dose: 4.0 mg/kg/injection, schedule: Q01DX005 (ip), vehicle: saline with Tween-80 112 % of control | dose: 8.0 mg/kg/injection, schedule: Q01DX005 (ip), vehicle: saline with Tween-80 124 % of control
